The target in experiment [1] is T1, tryptophan 2,3-dioxygenase (TDO) (Homo sapiens, UniProt P48775). Type of experiment: biochemical.
In experiment [2] the target is T1, tryptophan 2,3-dioxygenase (TDO). The experiment is classed as biochemical. This is another data set of the same source.

Where two headings read alike, the source gives them in different places.

T1 sequence (P48775 whole entry): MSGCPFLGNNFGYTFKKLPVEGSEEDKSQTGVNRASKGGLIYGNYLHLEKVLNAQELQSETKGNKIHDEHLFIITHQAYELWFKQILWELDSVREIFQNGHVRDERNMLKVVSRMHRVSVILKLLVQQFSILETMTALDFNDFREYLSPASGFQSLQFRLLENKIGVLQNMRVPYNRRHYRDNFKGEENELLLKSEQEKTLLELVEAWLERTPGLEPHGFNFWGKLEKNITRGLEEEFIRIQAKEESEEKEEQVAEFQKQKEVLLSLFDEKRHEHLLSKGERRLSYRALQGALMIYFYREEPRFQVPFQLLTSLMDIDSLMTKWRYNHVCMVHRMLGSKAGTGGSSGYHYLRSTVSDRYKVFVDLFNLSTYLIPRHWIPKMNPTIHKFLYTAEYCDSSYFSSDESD

As a reminder, the Ki is the equilibrium dissociation constant of an inhibitor or competing ligand from its target. Regarding `CC(Cc1c[nH]c2ccccc12)C(=O)O` (centres unmarked) [compound 1, probe 1], in experiment [1], the Ki was determined as 320 ± 43 µM.

In turn, `O=C(O)C(O)Cc1c[nH]c2ccccc12` (centres unmarked) [compound 2, probe 2] had a Ki in experiment [2] of 444 ± 32 µM.

Source of the values: publication PMC5874177 (Journal of the American Chemical Society, 2018).
